Patent publication US9211310B2, “Use of a Chinese medicine composition in preparing medicaments for treating secondary prevention of myocardial infarction” (TASLY PHARMACEUTICAL GROUP CO., LTD, priority 2010, dated 2015)

Tested on: patients after acute myocardial infarction
Assay: Angina pectoris score, total and single (frequency/attack times, duration, pain degree, dose of nitroglycerin), same clinical trial
Assay type: in vivo, human
Parameters: total angina pectoris score, Md / total angina pectoris score, Mean: scale not given here
Settings: for attack times score, patients (%): Baseline; for distribution of total angina pectoris score: Medium, number of patients / distribution of total angina pectoris score: Medium, percentage of patients / distribution of total angina pectoris score: Mild, number of patients / distribution of total angina pectoris score: Mild, percentage of patients / distribution of total angina pectoris score: Severe, number of patients / distribution of total angina pectoris score: Severe, percentage of patients / patients with dose of nitroglycerin score 0 (%) / patients with dose of nitroglycerin score 1 (%) / patients with dose of nitroglycerin score 2 (%) / patients with dose of nitroglycerin score 4 (%) / patients with dose of nitroglycerin score 6 (%) / total angina pectoris score, Md / total angina pectoris score, Mean / change of total angina pectoris score, Md / change of total angina pectoris score, Mean / patients with change of dose of nitroglycerin score 0 (%) / patients with change of dose of nitroglycerin score 1 (%) / patients with change of dose of nitroglycerin score 2 (%) / patients with change of dose of nitroglycerin score 4 (%) / patients with change of dose of nitroglycerin score 6 (%) / patients with change of dose of nitroglycerin score −1 (%) / patients with change of dose of nitroglycerin score −2 (%) / patients with change of dose of nitroglycerin score −3 (%) / patients with change of dose of nitroglycerin score −4 (%) / patients with change of dose of nitroglycerin score −6 (%) / patients with change of dose of nitroglycerin score −5 (%): FAS
Text: In order to better understand the present invention, a multi-center, randomized, double-blind, double-dummy and positive drug controlled trial had been conducted. 3508 patients who were in accordance with the diagnostic standards of AMI for 28 days to 2 years and differentiated as Qi deficiency and blood stagnation syndrome by TCM were studied. 0.5 g Chinese medicine composition prepared by the method of EXAMPLE 1 (Coded as QSYQ) was administrated half an hour after meal, 3 times per day. Aspirine was used as a positive drug. The patients were treated for 1 year and observed for 6 months.
They included the overall survival time, angina pectoris score, TCM symptom score and life quality score, where angina pectoris score, TCM symptom score and life quality score were evaluated at randomization, in 1st, 3rd, 6th, 9th, 12th month after treatment and 18th month after follow-up.
Total angina pectoris score was described on every observation period and the change of observation in comparison with baseline. T-test or Wilcoxon rank sum test were used for inter-group comparison. Grade of total score was evaluated on every observation and Wilcoxon rank sum test was used for inter-group comparison. T-test and Pairing signed rank sum test were used for analyzing the change of total score on every observation between groups in comparison with the baseline.
Single angina pectoris score was depicted on every observation time-point and the change of observation in comparison with baseline. Wilcoxon rank sum test was used for inter-group comparison. Pairing signed rank sum test was used for analyzing the change of total score on every observation between groups in comparison with the baseline.
Total angina pectoris score was described on every observation period and the change of observation in comparison with the baseline. T-test or Wilcoxon rank sum test were used for inter-group comparison. Grade of total score was evaluated on every observation and Wilcoxon rank sum test was used for inter-group comparison. T-test and Pairing signed rank sum test were used for analyzing the change of total score on every observation between groups in comparison with the baseline.
Single angina pectoris score was described on every observation time-point and the change of observation in comparison with baseline. Wilcoxon rank sum test was used for inter-group comparison. Pairing signed rank sum test was used for analyzing the change of total score on every observation between groups in comparison with the baseline.

[1] = 1 month after treatment-baseline
[2] = 3 months after treatment-baseline
[3] = 6 months after treatment-baseline
[4] = 9 months after treatment-baseline

## CC(=O)Oc1ccccc1C(=O)O [Control group, aspirine]
Score 1, PP
  attack times score, patients (%): (8.95%)
Score 2, FAS
  attack times score, patients (%): (53.24%)
Score 2, PP
  attack times score, patients (%): (53.51%)
Score 4, FAS
  attack times score, patients (%): (9.12%)
Score 4, PP
  attack times score, patients (%): (9.55%)
Score 6, FAS
  attack times score, patients (%): (1.03%)
Score 6, PP
  attack times score, patients (%): (1.00%)
1 month after treatment
  distribution of total angina pectoris score: Medium, number of patients: 484
  distribution of total angina pectoris score: Medium, percentage of patients: (28.24%)
  distribution of total angina pectoris score: Mild, number of patients: 1203
  distribution of total angina pectoris score: Mild, percentage of patients: (70.19%)
  distribution of total angina pectoris score: Severe, number of patients: 27
  distribution of total angina pectoris score: Severe, percentage of patients: (1.58%)
  patients with dose of nitroglycerin score 0 (%): (59.78%)
  patients with dose of nitroglycerin score 1 (%): (0.29%)
  patients with dose of nitroglycerin score 2 (%): (28.94%)
  patients with dose of nitroglycerin score 4 (%): (7.65%)
  patients with dose of nitroglycerin score 6 (%): (3.34%)
  total angina pectoris score, Md: 6.00
  total angina pectoris score, Mean: 5.92
[1]
  change of total angina pectoris score, Md: 0.00
  change of total angina pectoris score, Mean: −1.19
  patients with change of dose of nitroglycerin score 0 (%): (80.53%)
  patients with change of dose of nitroglycerin score 1 (%): (0.17%)
  patients with change of dose of nitroglycerin score 2 (%): (3.92%)
  patients with change of dose of nitroglycerin score 4 (%): (1.04%)
  patients with change of dose of nitroglycerin score 6 (%): (0.23%)
  patients with change of dose of nitroglycerin score −1 (%): (0.00%)
  patients with change of dose of nitroglycerin score −2 (%): (11.41%)
  patients with change of dose of nitroglycerin score −3 (%): (0.06%)
  patients with change of dose of nitroglycerin score −4 (%): (2.13%)
  patients with change of dose of nitroglycerin score −6 (%): (0.52%)
3 months after treatment
  distribution of total angina pectoris score: Medium, number of patients: 397
  distribution of total angina pectoris score: Medium, percentage of patients: (23.97%)
  distribution of total angina pectoris score: Mild, number of patients: 1241
  distribution of total angina pectoris score: Mild, percentage of patients: (74.94%)
  distribution of total angina pectoris score: Severe, number of patients: 18
  distribution of total angina pectoris score: Severe, percentage of patients: (1.09%)
  patients with dose of nitroglycerin score 0 (%): (61.98%)
  patients with dose of nitroglycerin score 1 (%): (0.63%)
  patients with dose of nitroglycerin score 2 (%): (29.58%)
  patients with dose of nitroglycerin score 4 (%): (5.23%)
  patients with dose of nitroglycerin score 6 (%): (2.58%)
  total angina pectoris score, Md: 6.00
  total angina pectoris score, Mean: 5.38
[2]
  change of total angina pectoris score, Md: 0.00
  change of total angina pectoris score, Mean: −1.73
  patients with change of dose of nitroglycerin score 0 (%): (75.23%)
  patients with change of dose of nitroglycerin score 1 (%): (0.17%)
  patients with change of dose of nitroglycerin score 2 (%): (4.44%)
  patients with change of dose of nitroglycerin score 4 (%): (0.69%)
  patients with change of dose of nitroglycerin score 6 (%): (0.29%)
  patients with change of dose of nitroglycerin score −1 (%): (0.29%)
  patients with change of dose of nitroglycerin score −2 (%): (15.15%)
  patients with change of dose of nitroglycerin score −4 (%): (2.94%)
  patients with change of dose of nitroglycerin score −5 (%): (0.12%)
  patients with change of dose of nitroglycerin score −6 (%): (0.69%)
6 months after treatment
  distribution of total angina pectoris score: Medium, number of patients: 309
  distribution of total angina pectoris score: Medium, percentage of patients: (19.43%)
  distribution of total angina pectoris score: Mild, number of patients: 1273
  distribution of total angina pectoris score: Mild, percentage of patients: (80.06%)
  distribution of total angina pectoris score: Severe, number of patients: 8
  distribution of total angina pectoris score: Severe, percentage of patients: (0.50%)
  patients with dose of nitroglycerin score 0 (%): (65.38%)
  patients with dose of nitroglycerin score 1 (%): (0.86%)
  patients with dose of nitroglycerin score 2 (%): (28.24%)
  patients with dose of nitroglycerin score 4 (%): (3.62%)
  patients with dose of nitroglycerin score 6 (%): (1.89%)
  total angina pectoris score, Md: 5.00
  total angina pectoris score, Mean: 4.78
[3]
  change of total angina pectoris score, Md: 0.00
  change of total angina pectoris score, Mean: −2.34
  patients with change of dose of nitroglycerin score 0 (%): (70.05%)
  patients with change of dose of nitroglycerin score 1 (%): (0.40%)
  patients with change of dose of nitroglycerin score 2 (%): (4.84%)
  patients with change of dose of nitroglycerin score 4 (%): (0.40%)
  patients with change of dose of nitroglycerin score 6 (%): (0.35%)
  patients with change of dose of nitroglycerin score −1 (%): (0.23%)
  patients with change of dose of nitroglycerin score −2 (%): (18.49%)
  patients with change of dose of nitroglycerin score −3 (%): (0.00%)
  patients with change of dose of nitroglycerin score −4 (%): (4.03%)
  patients with change of dose of nitroglycerin score −5 (%): (0.17%)
  patients with change of dose of nitroglycerin score −6 (%): (1.04%)
9 months after treatment
  distribution of total angina pectoris score: Medium, number of patients: 244
  distribution of total angina pectoris score: Medium, percentage of patients: (15.97%)
  distribution of total angina pectoris score: Mild, number of patients: 1280
  distribution of total angina pectoris score: Mild, percentage of patients: (83.77%)
  distribution of total angina pectoris score: Severe, number of patients: 4
  distribution of total angina pectoris score: Severe, percentage of patients: (0.26%)
  patients with dose of nitroglycerin score 0 (%): (67.11%)
  patients with dose of nitroglycerin score 1 (%): (1.03%)
  patients with dose of nitroglycerin score 2 (%): (27.73%)
  patients with dose of nitroglycerin score 4 (%): (2.41%)
  patients with dose of nitroglycerin score 6 (%): (1.72%)
  total angina pectoris score, Md: 5.00
  total angina pectoris score, Mean: 4.39
[4]
  change of total angina pectoris score, Md: −1.00
  change of total angina pectoris score, Mean: −2.72
  patients with change of dose of nitroglycerin score 0 (%): (67.45%)
  patients with change of dose of nitroglycerin score 1 (%): (0.35%)
  patients with change of dose of nitroglycerin score 2 (%): (4.84%)
  patients with change of dose of nitroglycerin score 4 (%): (0.46%)
  patients with change of dose of nitroglycerin score 6 (%): (0.35%)
  patients with change of dose of nitroglycerin score −1 (%): (0.46%)
  patients with change of dose of nitroglycerin score −2 (%): (20.16%)
  patients with change of dose of nitroglycerin score −3 (%): (0.12%)
  patients with change of dose of nitroglycerin score −4 (%): (4.26%)
  patients with change of dose of nitroglycerin score −5 (%): (0.17%)
  patients with change of dose of nitroglycerin score −6 (%): (1.38%)
12 months after treatment
  distribution of total angina pectoris score: Medium, number of patients: 176
  distribution of total angina pectoris score: Medium, percentage of patients: (11.96%)
  distribution of total angina pectoris score: Mild, number of patients: 1294
  distribution of total angina pectoris score: Mild, percentage of patients: (87.91%)
  distribution of total angina pectoris score: Severe, number of patients: 2
  distribution of total angina pectoris score: Severe, percentage of patients: (0.14%)
  patients with dose of nitroglycerin score 0 (%): (71.58%)
  patients with dose of nitroglycerin score 1 (%): (1.09%)
  patients with dose of nitroglycerin score 2 (%): (23.59%)
  patients with dose of nitroglycerin score 4 (%): (2.07%)
  patients with dose of nitroglycerin score 6 (%): (1.66%)
  total angina pectoris score, Md: 0.00
  total angina pectoris score, Mean: 3.83
